Each block holds one compound with its values, some of them ahead of it. Calls of active or inactive are those of the source.
Key:
[1] = NIH-3T3 fibroblast cytotoxicity, dose response, cytotoxicity control, cell-based, fluorescence, Alamar Blue, secondary assay (AID 2327); format: functional;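 also: NIH-3T3 mouse fibroblasts cultured with fluconazole at 8 µg/mL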
SUMO-activating enzyme [2] = molecular target: T1, SUMO-activating enzyme (Homo sapiens, UniProt Q9UBT2); test: blockers of UBC9-mediated SUMO conjugation – biochemical, AlphaScreen, SUMOylation inhibitor project, confirmation (AID 2018); format: functional
T1 sequence (Q9UBE0 whole entry): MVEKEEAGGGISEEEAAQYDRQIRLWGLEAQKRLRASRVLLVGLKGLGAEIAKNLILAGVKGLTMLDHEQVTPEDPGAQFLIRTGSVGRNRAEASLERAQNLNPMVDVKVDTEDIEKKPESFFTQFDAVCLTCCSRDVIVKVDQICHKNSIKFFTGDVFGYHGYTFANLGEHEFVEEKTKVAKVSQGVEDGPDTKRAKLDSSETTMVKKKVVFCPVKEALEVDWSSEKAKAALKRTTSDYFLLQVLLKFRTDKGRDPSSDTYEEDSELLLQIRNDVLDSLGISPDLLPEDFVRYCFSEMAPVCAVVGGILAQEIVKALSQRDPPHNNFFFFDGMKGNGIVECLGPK
T1 sequence (Q9UBT2 whole entry): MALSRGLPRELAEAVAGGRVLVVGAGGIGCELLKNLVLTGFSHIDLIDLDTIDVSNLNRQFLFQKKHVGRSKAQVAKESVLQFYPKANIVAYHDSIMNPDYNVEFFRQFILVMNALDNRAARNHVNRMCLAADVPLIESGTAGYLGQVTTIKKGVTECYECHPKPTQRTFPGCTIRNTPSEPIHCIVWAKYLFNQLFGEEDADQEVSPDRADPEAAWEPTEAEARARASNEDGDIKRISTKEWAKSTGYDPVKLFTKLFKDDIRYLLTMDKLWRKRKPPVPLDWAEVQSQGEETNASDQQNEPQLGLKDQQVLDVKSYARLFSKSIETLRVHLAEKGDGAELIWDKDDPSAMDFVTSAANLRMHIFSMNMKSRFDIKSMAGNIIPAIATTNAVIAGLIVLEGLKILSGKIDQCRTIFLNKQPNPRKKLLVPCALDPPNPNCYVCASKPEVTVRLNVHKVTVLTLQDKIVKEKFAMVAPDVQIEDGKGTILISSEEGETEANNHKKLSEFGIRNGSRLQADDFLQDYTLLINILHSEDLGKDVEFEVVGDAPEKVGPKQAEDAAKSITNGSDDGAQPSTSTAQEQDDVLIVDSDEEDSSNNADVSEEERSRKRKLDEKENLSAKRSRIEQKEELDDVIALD

[3] = fluconazole-exposed Candida albicans growth modulators – fluorescence, retest, confirmation (AID 2467); format: functional, cell-based
Large T antigen = Large T antigen (Simian virus 40, UniProt P03070); format: functional, Betapolyomavirus macacae;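 also: Confirmatory-stage PubChem screen for compounds that inhibit SV40 T antigen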
SUMO-activating enzyme [4] = molecular target: T1, SUMO-activating enzyme; test: blockers of SAE1/SAE2–UBC9 SUMO transfer – biochemical, HTRF, uHTS, primary screen (AID 2006); format: protein-complex assay
[5] = molecular target: T2, DNA dC->dU-editing enzyme APOBEC-3A (Homo sapiens, UniProt P31941); test: A3A deaminase inhibition for selectivity – biochemical, dose response (AID 504722); format: functional
T2 sequence (P31941 whole entry): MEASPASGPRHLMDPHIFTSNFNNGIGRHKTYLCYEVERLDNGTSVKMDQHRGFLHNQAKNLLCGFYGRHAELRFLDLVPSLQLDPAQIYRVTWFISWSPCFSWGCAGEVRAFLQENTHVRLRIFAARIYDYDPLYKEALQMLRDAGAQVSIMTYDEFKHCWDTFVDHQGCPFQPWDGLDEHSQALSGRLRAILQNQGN

[6] = molecular target: Intestinal-type alkaline phosphatase (Mus musculus, UniProt P24822); test: PubChem AID 488785; format: functional
Sequence of Intestinal-type alkaline phosphatase (Mus musculus, UniProt P24822) (P24822 whole entry): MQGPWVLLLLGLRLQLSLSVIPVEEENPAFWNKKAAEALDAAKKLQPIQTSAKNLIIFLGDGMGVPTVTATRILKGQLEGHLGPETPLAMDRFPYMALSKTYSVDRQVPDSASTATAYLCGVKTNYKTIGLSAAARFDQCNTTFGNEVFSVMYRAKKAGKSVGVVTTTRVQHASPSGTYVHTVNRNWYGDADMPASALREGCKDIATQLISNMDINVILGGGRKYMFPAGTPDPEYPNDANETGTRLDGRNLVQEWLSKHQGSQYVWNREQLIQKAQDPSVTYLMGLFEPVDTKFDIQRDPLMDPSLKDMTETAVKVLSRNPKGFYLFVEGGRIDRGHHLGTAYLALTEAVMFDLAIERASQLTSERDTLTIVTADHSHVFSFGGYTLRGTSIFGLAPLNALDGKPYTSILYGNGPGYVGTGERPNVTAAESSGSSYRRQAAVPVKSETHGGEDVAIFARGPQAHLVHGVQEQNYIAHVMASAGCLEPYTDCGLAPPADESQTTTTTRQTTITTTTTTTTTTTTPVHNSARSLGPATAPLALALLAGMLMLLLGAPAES

[7] = molecular target: T3, DNA dC->dU-editing enzyme APOBEC-3G (Homo sapiens, UniProt Q9HC16); test: Dose Response confirmation of small molecule APOBEC3G DNA Deaminase Inhibitors via a fluorescence-based single-stranded DNA deaminase assay. [Related pubchem assays (depositor defined):AID493012, AID493028]; format: functional
T3 sequence (Q9HC16 whole entry): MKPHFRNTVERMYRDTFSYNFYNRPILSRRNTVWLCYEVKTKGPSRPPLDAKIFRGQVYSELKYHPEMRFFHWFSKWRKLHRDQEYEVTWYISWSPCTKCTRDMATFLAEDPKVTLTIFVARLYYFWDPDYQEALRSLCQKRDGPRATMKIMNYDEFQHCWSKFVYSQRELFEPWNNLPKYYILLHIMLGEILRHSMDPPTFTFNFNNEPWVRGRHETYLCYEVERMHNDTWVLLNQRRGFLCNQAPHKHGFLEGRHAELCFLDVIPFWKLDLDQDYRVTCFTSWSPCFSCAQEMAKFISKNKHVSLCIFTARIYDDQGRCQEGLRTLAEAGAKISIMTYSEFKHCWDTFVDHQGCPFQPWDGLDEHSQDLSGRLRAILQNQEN

[8] = molecular target: T4, Alkaline phosphatase, tissue-nonspecific isozyme (Homo sapiens, UniProt P05186); test: TNAP enzyme inhibition by screening hits, dose response, selectivity assay for mouse IAP inhibitor project, biochemical, human TNAP, uHTS hits (AID 488906); format: functional
T4 sequence (P05186 whole entry): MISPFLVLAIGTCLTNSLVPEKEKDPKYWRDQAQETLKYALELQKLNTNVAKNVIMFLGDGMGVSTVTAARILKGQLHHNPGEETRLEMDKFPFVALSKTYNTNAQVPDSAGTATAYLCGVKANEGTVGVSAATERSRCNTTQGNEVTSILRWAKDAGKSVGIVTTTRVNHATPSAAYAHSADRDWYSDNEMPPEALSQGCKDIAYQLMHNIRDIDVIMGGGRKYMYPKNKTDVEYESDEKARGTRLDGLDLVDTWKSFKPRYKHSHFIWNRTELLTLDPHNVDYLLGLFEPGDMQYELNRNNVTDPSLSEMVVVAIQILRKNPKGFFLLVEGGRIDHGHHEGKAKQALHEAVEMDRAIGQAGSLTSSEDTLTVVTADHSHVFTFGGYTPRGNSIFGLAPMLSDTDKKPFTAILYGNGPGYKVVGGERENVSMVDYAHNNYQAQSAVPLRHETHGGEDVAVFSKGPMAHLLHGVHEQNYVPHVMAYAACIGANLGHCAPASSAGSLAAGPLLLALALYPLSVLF

[9] = molecular target: Intestinal-type alkaline phosphatase (Homo sapiens, UniProt P09923); test: inhibition of human intestinal alkaline phosphatase – biochemical, dose response (AID 488876); format: functional
Sequence of Intestinal-type alkaline phosphatase (Homo sapiens, UniProt P09923) (P09923 whole entry): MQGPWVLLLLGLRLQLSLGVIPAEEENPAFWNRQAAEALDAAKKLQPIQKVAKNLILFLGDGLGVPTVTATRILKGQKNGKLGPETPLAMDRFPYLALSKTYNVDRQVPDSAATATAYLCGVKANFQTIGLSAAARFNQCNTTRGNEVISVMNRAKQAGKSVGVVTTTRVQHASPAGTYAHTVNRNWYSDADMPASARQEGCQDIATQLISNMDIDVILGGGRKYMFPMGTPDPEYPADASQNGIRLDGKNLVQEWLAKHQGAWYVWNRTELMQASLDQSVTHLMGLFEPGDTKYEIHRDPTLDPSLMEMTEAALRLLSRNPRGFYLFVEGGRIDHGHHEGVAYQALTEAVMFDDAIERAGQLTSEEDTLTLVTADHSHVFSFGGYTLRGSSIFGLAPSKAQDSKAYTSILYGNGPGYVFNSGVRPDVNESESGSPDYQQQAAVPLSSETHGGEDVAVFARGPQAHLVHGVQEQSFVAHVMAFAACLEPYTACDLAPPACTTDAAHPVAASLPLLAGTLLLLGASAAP

Albumin = Albumin (Bos taurus, UniProt P02769); test: Counterscreen for inhibitors of T-cell receptor (TCR)-CD3 interaction: Fluorescence-based biochemical high throughput dose response assay to identify inhibitors of T-cell receptor (TCR)-CD3 interaction using a TAMRA-labeled BSA probe.; format: functional
Sequence of Albumin (P02769 whole entry): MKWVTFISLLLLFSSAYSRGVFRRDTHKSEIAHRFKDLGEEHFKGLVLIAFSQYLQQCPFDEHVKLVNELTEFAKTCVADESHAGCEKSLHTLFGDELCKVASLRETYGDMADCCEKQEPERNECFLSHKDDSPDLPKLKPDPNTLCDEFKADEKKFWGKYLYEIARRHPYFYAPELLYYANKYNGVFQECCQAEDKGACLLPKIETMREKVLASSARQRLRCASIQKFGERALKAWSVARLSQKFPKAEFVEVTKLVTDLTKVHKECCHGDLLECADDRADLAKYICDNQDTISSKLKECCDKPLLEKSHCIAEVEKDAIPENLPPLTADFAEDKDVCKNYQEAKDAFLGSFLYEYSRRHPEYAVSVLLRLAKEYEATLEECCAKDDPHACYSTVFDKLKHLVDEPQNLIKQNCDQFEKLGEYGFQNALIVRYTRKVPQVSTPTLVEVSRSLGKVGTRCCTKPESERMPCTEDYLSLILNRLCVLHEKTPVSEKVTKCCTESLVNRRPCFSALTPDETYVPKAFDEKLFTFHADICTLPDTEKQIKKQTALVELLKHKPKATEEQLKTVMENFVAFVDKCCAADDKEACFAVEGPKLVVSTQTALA

[10] = molecular target: T5, Histone-lysine N-methyltransferase NSD2 (Homo sapiens, UniProt O96028); format: biochemical
T5 sequence (O96028 whole entry): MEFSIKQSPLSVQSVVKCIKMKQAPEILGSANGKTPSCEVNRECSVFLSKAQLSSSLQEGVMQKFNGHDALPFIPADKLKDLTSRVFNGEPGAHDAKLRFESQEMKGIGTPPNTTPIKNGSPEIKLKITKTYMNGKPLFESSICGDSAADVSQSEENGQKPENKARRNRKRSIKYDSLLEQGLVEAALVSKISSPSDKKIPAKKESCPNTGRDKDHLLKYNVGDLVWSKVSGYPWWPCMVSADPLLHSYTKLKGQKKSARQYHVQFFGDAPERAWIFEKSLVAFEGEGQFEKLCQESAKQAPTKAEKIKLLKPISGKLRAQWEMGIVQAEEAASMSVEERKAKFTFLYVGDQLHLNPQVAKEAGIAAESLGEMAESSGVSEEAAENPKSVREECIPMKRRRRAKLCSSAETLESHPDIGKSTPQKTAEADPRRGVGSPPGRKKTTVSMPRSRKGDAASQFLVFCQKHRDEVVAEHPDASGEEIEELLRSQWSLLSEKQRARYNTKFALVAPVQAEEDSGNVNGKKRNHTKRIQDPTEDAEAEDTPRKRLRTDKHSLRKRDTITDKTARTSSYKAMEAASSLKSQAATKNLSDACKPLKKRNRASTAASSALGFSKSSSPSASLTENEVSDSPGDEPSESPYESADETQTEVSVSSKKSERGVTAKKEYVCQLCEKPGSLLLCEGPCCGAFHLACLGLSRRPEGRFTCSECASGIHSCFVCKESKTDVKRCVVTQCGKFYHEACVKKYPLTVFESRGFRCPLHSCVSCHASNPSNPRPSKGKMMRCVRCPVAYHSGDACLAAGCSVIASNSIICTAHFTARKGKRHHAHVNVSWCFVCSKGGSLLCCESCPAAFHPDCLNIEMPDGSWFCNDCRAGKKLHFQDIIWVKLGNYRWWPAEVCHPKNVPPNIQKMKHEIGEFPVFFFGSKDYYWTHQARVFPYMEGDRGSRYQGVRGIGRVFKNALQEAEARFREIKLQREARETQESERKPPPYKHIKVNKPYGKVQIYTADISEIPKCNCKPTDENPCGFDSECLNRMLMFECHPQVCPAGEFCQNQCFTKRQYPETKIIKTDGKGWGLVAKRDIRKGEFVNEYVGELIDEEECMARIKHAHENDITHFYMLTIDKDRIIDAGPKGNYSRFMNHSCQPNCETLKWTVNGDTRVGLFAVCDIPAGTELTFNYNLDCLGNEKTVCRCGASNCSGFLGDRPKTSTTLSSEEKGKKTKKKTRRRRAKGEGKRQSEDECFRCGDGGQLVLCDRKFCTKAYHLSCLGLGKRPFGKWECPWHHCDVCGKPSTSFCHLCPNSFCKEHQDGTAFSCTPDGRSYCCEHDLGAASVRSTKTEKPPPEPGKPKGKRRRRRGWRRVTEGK

[11] = molecular target: T6, G-protein coupled receptor 55 (Homo sapiens, UniProt Q9Y2T6); test: inhibition of LPI-stimulated GPR55 beta-arrestin translocation – imaging, U2OS, beta-arrestin-GFP, LPI agonist, primary screen (AID 2013); format: functional;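 also: antagonist potency measured as reduced agonist-driven arrestin aggregation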
T6 sequence (Q9Y2T6 whole entry): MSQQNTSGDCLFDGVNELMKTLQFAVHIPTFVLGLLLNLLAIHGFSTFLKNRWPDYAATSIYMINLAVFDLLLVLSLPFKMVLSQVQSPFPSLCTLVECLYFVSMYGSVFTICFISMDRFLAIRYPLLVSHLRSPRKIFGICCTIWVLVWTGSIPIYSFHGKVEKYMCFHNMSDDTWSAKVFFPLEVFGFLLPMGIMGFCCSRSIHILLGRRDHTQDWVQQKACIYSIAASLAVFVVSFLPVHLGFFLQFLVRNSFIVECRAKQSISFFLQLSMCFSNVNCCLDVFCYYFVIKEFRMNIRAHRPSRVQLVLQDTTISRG

Cannabinoid receptor 1 [12] = molecular target: T7, Cannabinoid receptor 1 (Homo sapiens, UniProt P21554); test: SAR analysis of antagonists of the Cannabinoid Receptor 1 using an Image-Based Assay - Set 2. [Related pubchem assays (depositor defined):AID2013, AID2026]; format: functional
T7 sequence (P21554 whole entry): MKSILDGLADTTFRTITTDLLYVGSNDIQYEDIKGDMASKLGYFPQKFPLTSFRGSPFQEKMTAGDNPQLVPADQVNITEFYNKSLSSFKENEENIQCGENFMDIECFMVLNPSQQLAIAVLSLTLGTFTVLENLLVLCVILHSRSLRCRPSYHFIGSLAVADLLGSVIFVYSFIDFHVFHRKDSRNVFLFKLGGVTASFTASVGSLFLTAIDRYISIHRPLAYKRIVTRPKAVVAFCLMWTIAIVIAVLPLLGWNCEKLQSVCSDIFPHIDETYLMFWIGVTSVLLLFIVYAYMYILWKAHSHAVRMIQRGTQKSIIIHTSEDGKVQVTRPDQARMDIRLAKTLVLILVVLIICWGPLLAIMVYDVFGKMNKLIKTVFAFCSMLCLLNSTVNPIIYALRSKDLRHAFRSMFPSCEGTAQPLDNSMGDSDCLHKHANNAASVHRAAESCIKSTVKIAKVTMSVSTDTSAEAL

[13] = molecular target: T8, G-protein coupled receptor 35 (Homo sapiens, UniProt Q9HC97); test: SAR analysis of Agonists of the GPR35 Receptor using an Image-Based Assay - Set 2. [Related pubchem assays (depositor defined):AID2013, AID2026]; format: functional
T8 sequence (Q9HC97 whole entry): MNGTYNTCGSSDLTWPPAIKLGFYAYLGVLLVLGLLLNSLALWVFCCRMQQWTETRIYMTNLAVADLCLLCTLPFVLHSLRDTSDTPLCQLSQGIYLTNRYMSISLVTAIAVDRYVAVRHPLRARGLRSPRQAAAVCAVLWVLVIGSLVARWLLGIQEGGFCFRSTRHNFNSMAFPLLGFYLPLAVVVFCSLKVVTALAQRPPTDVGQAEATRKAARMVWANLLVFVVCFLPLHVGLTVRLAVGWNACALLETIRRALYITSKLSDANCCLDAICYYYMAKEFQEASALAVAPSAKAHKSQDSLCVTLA

Cannabinoid receptor 2 [14] = molecular target: T9, Cannabinoid receptor 2 (Homo sapiens, UniProt P34972); test: SAR analysis of antagonists of the Cannabinoid Receptor 2 using an Image-Based Assay. [Related pubchem assays (depositor defined):AID2013, AID2026]; format: functional
T9 sequence (P34972 whole entry): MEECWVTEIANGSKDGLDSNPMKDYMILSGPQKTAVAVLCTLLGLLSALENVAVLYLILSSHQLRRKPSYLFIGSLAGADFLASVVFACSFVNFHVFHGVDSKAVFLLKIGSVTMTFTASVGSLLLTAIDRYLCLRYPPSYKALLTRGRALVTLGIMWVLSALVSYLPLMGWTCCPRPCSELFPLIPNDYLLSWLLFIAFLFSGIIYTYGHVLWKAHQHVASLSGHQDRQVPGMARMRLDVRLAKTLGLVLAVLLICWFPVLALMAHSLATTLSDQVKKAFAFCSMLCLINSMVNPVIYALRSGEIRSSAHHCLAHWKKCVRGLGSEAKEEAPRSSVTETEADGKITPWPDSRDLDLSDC

Cannabinoid receptor 1 [15] = molecular target: T7, Cannabinoid receptor 1; test: SAR analysis of agonists of the Cannabinoid Receptor 1 using an Image-Based Assay - Set 2. [Related pubchem assays (depositor defined):AID2013, AID2026]; format: functional
[16] = molecular target: T8, G-protein coupled receptor 35; test: SAR analysis of Antagonists of the GPR35 Receptor using an Image-Based Assay - Set 3. [Related pubchem assays (depositor defined):AID2013, AID2026]; format: functional
[17] = molecular target: T6, G-protein coupled receptor 55; test: blockade of LPI-induced GPR55 arrestin translocation – imaging, U2OS, beta-arrestin-GFP, LPI agonist, set 2, SAR follow-up (AID 2820); format: functional
Cannabinoid receptor 2 [18] = molecular target: T9, Cannabinoid receptor 2; test: SAR analysis of agonists of the Cannabinoid Receptor 2 using an Image-Based Assay. [Related pubchem assays (depositor defined):AID2013, AID2026]; format: functional
[19] = molecular target: T8, G-protein coupled receptor 35; test: inhibition of zaprinast-stimulated GPR35 beta-arrestin translocation – imaging, U2OS, beta-arrestin-GFP, zaprinast agonist, primary screen (AID 2058); format: functional;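 also: antagonist potency meaning inhibition of agonist-induced arrestin redistribution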
[20] = Trypanosoma cruzi growth suppression in host cells – NIH3T3 host cells, beta-gal luminescence, confirmation (AID 2044); format: functional, cell-based;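 also: intracellular parasites grown in NIH/3T3 mouse fibroblasts as host cells; luminescent beta-galactosidase reporter signal from transgenic T. cruzi replicating inside host cells; inhibitors lower the luminescence signal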
[21] = NIH3T3 cell viability loss – ATP luminescence, mouse fibroblasts, counter-screen, dose response (AID 2010); format: functional, cell-based;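 also: cells exposed to compound for about 90 hours before reading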
[22] = molecular target: T2, DNA dC->dU-editing enzyme APOBEC-3A; test: Dose Response confirmation of small molecule APOBEC3A DNA Deaminase Inhibitors via a fluorescence-based single-stranded DNA deaminase assay. [Related pubchem assays (depositor defined):AID493011, AID493024]; format: functional
Troponin, cardiac muscle = Troponin, cardiac muscle (Homo sapiens, UniProt P19429+P45379+P63316); test: Fluorescence-based biochemical high throughput dose response assay for activators of the calcium sensitivity of cardiac Regulated Thin Filaments (RTF). [Related pubchem assays (depositor defined):AID493008, AID493018, AID504382, AID504383]; format: protein-complex assay
[23] = molecular target: T3, DNA dC->dU-editing enzyme APOBEC-3G; format: functional
[24] = molecular target: T6, G-protein coupled receptor 55; test: blockers of GPR55 signalling, imaged – imaging, image-based, counter-screen for GPR35 antagonist project, SAR follow-up (AID 2397); format: functional
INS1 = test: INS-1E survival protection against cytokine death – cell-based, luminescence, retest, dose response (AID 449756); format: functional; settings: Rattus norvegicus;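 also: cell death triggered by IL-1 beta plus TNF-alpha plus IFN-gamma mixture; protective hits raise ATP signal compared with cytokine alone wells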

SMILES: N#C/C(=C\c1ccc(O)c(O)c1)C(=O)Nc1cccc2ncccc12
- EC50 [1]: > 150 µM (inactive)
- IC50 (SUMO-activating enzyme [2]): 1.27 µM (active)
- EC50 [3]: > 38 µM (not active)
- IC50 (Large T antigen): 27.8 µM (active)
- IC50 (SUMO-activating enzyme [4]): 21.4 µM (active)
- IC50 [5]: > 100 µM (inactive)
- IC50 [6]: 14.3 µM (active)
- IC50 [7]: 3.81 µM (active)
- IC50 [8]: 34.6 µM (active)
- IC50 [9]: 12.5 µM (active)
- IC50 (Albumin): > 94 µM (inactive)
- AC50 [10]: 3.18 µM (active)

- IC50 [11]: 1.26 µM (active)
- IC50 (Cannabinoid receptor 1 [12]): 30.7 µM (inactive)
- EC50 [13]: > 32 µM (inactive)
- IC50 (Cannabinoid receptor 2 [14]): > 32 µM (inactive)
- EC50 (Cannabinoid receptor 1 [15]): > 32 µM (inactive)
- IC50 [16]: > 32 µM (inactive)
- IC50 [17]: 1.14 µM (active)
- EC50 (Cannabinoid receptor 2 [18]): > 32 µM (inactive)
SMILES: COC(=O)C1=C(N)c2c(F)cccc2C1(C#N)c1ccc(F)cc1 (stereo not drawn)

SMILES: C=CCn1c(C)c(/C=C/c2cc[n+](C)cc2)c2ccccc21
- IC50 [19]: 1.97 µM (active)
- EC50 [20]: 0.69 µM (active)
- EC50 [21]: > 60 µM (not active)
- IC50 [22]: > 100 µM (inactive)
- EC50 (Troponin, cardiac muscle): 1.88 µM (active)
- IC50 [23]: 16.3 µM (active)
- IC50 [24]: 2.79 µM (active)
- AC50 (INS1): 6.54 µM (active)

Source: ChEMBL document CHEMBL1201862, “PubChem BioAssay data set” (2004)
